Assays:
[1] = test system: Jurkat cells; test: PPIase activity on cell surface (PACS), Jurkat cells; assay type: cell-based; conditions: 1 µL medium with 200 µM inhibitor added to 19 µL
Protocol: (§1) To investigate PACS, we need to distinguish between different families of PPIase. […] PACS must also be distinguished from that in culture medium. Adhesive cells such as fibroblasts (human dermal fibroblasts isolated from neonatal foreskin (HDFn)) or mesenchymal stromal cells (MSCs) were washed by simple pipetting and pooling. Washing of suspension cells such as T cells was performed by centrifugation. […] To minimize the potential damage to cells, one washing step was used in the PACS measurement for suspension cells (Supplementary Fig. 10).
(§2) The assay was performed in a cold room. If there was no additional description, the assays were performed in CO2-independent medium supplemented with 10% (v/v) h.i. FBS (medium-h.i. FBS) and 2mM L-glutamine. […] FBS to a final concentration of 120 µg mL^−1 (two times substrate stock). α-Chymotrypsin was prepared freshly. Fifteen micrograms of α-chymotrypsin was dissolved in 2 mL medium-h.i. FBS, and the pH was adjusted with 10 µL 1 M NaOH.
One or more flasks of cells (5 mL per flask, depending on the maximum culture density of each cell line) were harvested by centrifuging at 1000 rpm for 3 min. To remove PPIases from the supernatant originating from the culture, cells were washed one time with 2 mL CO2-independent medium and were resuspended in 1.6 mL of CO2-independent medium with substrate. The cells were centrifuged again, and then 800 µL of the supernatant was taken. The residual volume containing cells was suspended. Nineteen microliters of the cells or supernatant was pipetted to a non-binding 96-well microplate to measure PPIase activity. Four different conditions were performed. […] The plate was kept for 5 min without agitation. The activity measurements were triggered by adding 20 µL of α-chymotrypsin at time 0 min, followed by 1.5 min agitation, and the reaction was stopped after 2 min with 80 µL 20% acetic acid, followed by 15 rounds of up and down pipetting mixing. […]
For the Jurkat cell number activity measurements, two flasks of cells (10 mL) were harvested, washed, and suspended in 600 µL of CO2-independent medium with substrate. The cells were centrifuged again, and then 300 µL supernatant was taken to measure the activity. The residual volume with cells was suspended and used to measure activity (cell density: 2.4 × 10^7 cells/mL). Four different conditions were performed: 20 µL supernatant or cell with 0 µL substrate, 10 µL supernatant or cell with 10 µL substrate, 5 µL supernatant or cell with 15 µL substrate, and 2.5 µL supernatant or cell with 17.5 µL substrate. […]

[2] = test system: human dermal fibroblasts isolated from neonatal foreskin (HDFn); test: PPIase activity on cell surface (PACS), HDFn; assay type: cell-based; conditions: inhibitor final concentration of 10 µM
Protocol: To investigate PACS, we need to distinguish between different families of PPIase. […] PACS must also be distinguished from that in culture medium. Adhesive cells such as fibroblasts (human dermal fibroblasts isolated from neonatal foreskin (HDFn)) or mesenchymal stromal cells (MSCs) were washed by simple pipetting and pooling. Washing of suspension cells such as T cells was performed by centrifugation. After the first washing step, no change in PPIase activity in supernatant could be detected through the following washing steps. To minimize the potential damage to cells, one washing step was used in the PACS measurement for suspension cells (Supplementary Fig. 10). […] Adding SLF further reduced the isomerase activity in samples both with and without cells due to the FKBP in the fetal bovine serum (FBS)-containing medium. After the treatment of CsA/SLF, these was no difference in the substrate cis/trans isomerization rate in all the samples. Therefore, neither the cells nor the FBS in the culture medium interferes with the protease-coupled PPIase assay (Fig. 4b).
as §2, with “NaOH. Five millimole CsA, SLF, and CsA/SLF mixture were prepared in DMSO.” for “NaOH.”
(§3) The cells (10,000 per well) were cultured in 96-well plates for 24 h. The supernatant was removed by turning the plate upside down. The cells were washed three times for 5 min under gentle shaking using supplemented CO2-independent medium (100 µL/well), and the supernatant was removed as before. The cells were kept in supplemented CO2-independent medium (100 µL/well) for measuring PPIase activity.
(§4) The medium was removed with a pipette. […] The mixture was kept for 5 min without agitation, followed by 1.5 min of agitation (linear shaking by hand with a speed of around 200 rounds/min). Twenty microliters were taken from the supernatant and measured along with the cell fraction (the remaining 20 µL) for PPIase activity. The activity measurements were triggered by adding 20 µL α-chymotrypsin at time 0 min, followed by 1.5 min of agitation, and the reaction was stopped at time 2 min with 80 µL of 20% acetic acid followed by 15 rounds of up and down pipetting mixing. Four independent experiments were performed on the same day.

[3] = test system: human mesenchymal stromal cells (MSCs); test: PPIase activity on cell surface (PACS), MSCs; assay type: cell-based; conditions: MSC, inhibitor final concentration of 10 µM
Protocol: as §1, §2, §3, §4

[4] = test system: PPIase activity in culture medium (FKBP in the FBS-containing medium); test: PPIase activity in CO2-independent medium with or without FBS (control); assay type: biochemical, bovine; conditions: for Supernatant PPIase activity k, Exp. 1 / Supernatant PPIase activity k, Exp. 2 / Supernatant PPIase activity k, Exp. 3 / Supernatant PPIase activity k, Mean: no cells
Protocol: as §1, §2

SMILES: CCC(C)(C)C(=O)C(=O)N1CCCC[C@H]1C(=O)O[C@H](CCc1ccc(OC)c(OC)c1)c1cccc(OCC(=O)O)c1 [SLF]
- Supernatant PPIase activity k, Exp. 1 ([1]; supernatant): 0.00208 s⁻¹
- Supernatant PPIase activity k, Exp. 2 ([1]; supernatant): 0.00205 s⁻¹
- Supernatant PPIase activity k, Exp. 3 ([1]; supernatant): 0.00194 s⁻¹
- Supernatant PPIase activity k, Exp. 4 ([1]; supernatant): 0.00211 s⁻¹
- Supernatant PPIase activity k, Exp. 5 ([1]; supernatant): 0.00203 s⁻¹
- Supernatant PPIase activity k, Exp. 6 ([1]; supernatant): 0.00196 s⁻¹
- Supernatant PPIase activity k, Mean ([1]; supernatant): 0.002028 s⁻¹
- cell surface PPIase activity k, Cell (1st replicate column) ([1]; with cells): 0.0033 s⁻¹
- cell surface PPIase activity k, Cell (2nd replicate column) ([1]; with cells): 0.00321 s⁻¹
- cell surface PPIase activity k, Cell (3rd replicate column) ([1]; with cells): 0.00336 s⁻¹
- cell surface PPIase activity k, Cell (4th replicate column) ([1]; with cells): 0.00308 s⁻¹
- cell surface PPIase activity k, Cell (5th replicate column) ([1]; with cells): 0.00293 s⁻¹
- cell surface PPIase activity k, Cell (6th replicate column) ([1]; with cells): 0.00306 s⁻¹
- cell surface PPIase activity k, Mean ([1]; with cells): 0.003176 s⁻¹
- Supernatant PPIase activity k, Exp. 1 ([2]; supernatant): 0.00186 s⁻¹
- Supernatant PPIase activity k, Exp. 2 ([2]; supernatant): 0.00236 s⁻¹
- Supernatant PPIase activity k, Exp. 3 ([2]; supernatant): 0.00238 s⁻¹
- Supernatant PPIase activity k, Mean ([2]; supernatant): 0.0022 s⁻¹
- cell surface PPIase activity k, Exp. 2 ([2]; with cells): 0.0027 s⁻¹
- cell surface PPIase activity k, Exp. 3 ([2]; with cells): 0.00286 s⁻¹
- cell surface PPIase activity k, Exp. 4 ([2]; with cells): 0.00333 s⁻¹
- cell surface PPIase activity k, Mean ([2]; with cells): 0.002963 s⁻¹
- Supernatant PPIase activity k, Exp. 1 ([3]; supernatant): 0.0025 s⁻¹
- Supernatant PPIase activity k, Exp. 2 ([3]; supernatant): 0.00238 s⁻¹
- Supernatant PPIase activity k, Exp. 3 ([3]; supernatant): 0.00221 s⁻¹
- Supernatant PPIase activity k, Exp. 4 ([3]; supernatant): 0.00211 s⁻¹
- Supernatant PPIase activity k, Mean ([3]; supernatant): 0.0023 s⁻¹
- cell surface PPIase activity k, Exp. 2 ([3]; with cells): 0.0036 s⁻¹
- cell surface PPIase activity k, Exp. 3 ([3]; with cells): 0.00293 s⁻¹
- cell surface PPIase activity k, Exp. 4 ([3]; with cells): 0.00339 s⁻¹
- cell surface PPIase activity k, Mean ([3]; with cells): 0.003307 s⁻¹
- Supernatant PPIase activity k, Exp. 1 ([4]; Medium with FBS): 0.00201 s⁻¹
- Supernatant PPIase activity k, Exp. 2 ([4]; Medium with FBS): 0.00203 s⁻¹
- Supernatant PPIase activity k, Exp. 3 ([4]; Medium with FBS): 0.00197 s⁻¹
- Supernatant PPIase activity k, Mean ([4]; Medium with FBS): 0.002003 s⁻¹
- Supernatant PPIase activity k, Exp. 1 ([4]; Medium without FBS): 0.00194 s⁻¹
- Supernatant PPIase activity k, Exp. 2 ([4]; Medium without FBS): 0.00197 s⁻¹
- Supernatant PPIase activity k, Exp. 3 ([4]; Medium without FBS): 0.00199 s⁻¹
- Supernatant PPIase activity k, Mean ([4]; Medium without FBS): 0.001967 s⁻¹
- inhibition of residual PPIase activity in the supernatant ([4]; supernatant / FBS-containing culture medium (Fig. 4b, first right)): completely inhibited

From article PMC6370856, “Peptidyl prolyl cis/trans isomerase activity on the cell surface correlates with extracellular matrix development” (Communications Biology, 2019)
